For orientation: GI50 means the concentration giving 50% growth inhibition.

Some test systems named below: SW-620; 786-0; SK-OV-3; SNB-75; SNB-19; EKVX; RPMI-8226; NCI-H226; SK-MEL-2; Malme-3M; K562; A549; LOX IMVI; SF-268; ACHN; HCT-116; MDA-MB-231; NCI/ADR-RES; DU-145.
Holding throughout (assay): DTP human tumour cell line panel, 48 h

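96-well plates; 48 h exposure; 5 concentrations. Endpoints by linear interpolation between flanking doses. Not reached: highest tested concentration assigned. GI50 marks 50% less growth.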 Active and inactive are the calls of the source. Rule as the data show it: active = GI50 up to about 1.1 µM and inactive = higher.

For `O=C(NO)c1ccc([N+](=O)[O-])cc1`, the GI50 was 50.8 µM (inactive) with SW-620; > 100 µM (inactive) with 786-0; > 100 µM (inactive) in the assay with SK-OV-3; 23.9 µM (inactive) in the assay on SNB-75; 46.2 µM (inactive) with SNB-19; 27.1 µM (inactive) in the assay on EKVX. Also, the GI50 in the assay on RPMI-8226 was 27.2 µM (inactive); in the assay with NCI-H226, 39.5 µM (inactive); in the assay on SK-MEL-2 it was 32.1 µM (inactive); with Malme-3M it was 26.9 µM (inactive); in the assay on K562, 31 µM (inactive); in the assay on A549, 64.4 µM (inactive). In addition, the GI50 in the assay with LOX IMVI was 40.8 µM (inactive); in the assay on SF-268, > 100 µM (inactive).

On to `COC(=O)C12OCC34C(CC5C(C)C6=CC(=O)OC6=CC5(C)C3C(O)C1O)OC(=O)C(OC(C)=O)C24` (centres undefined), for which the GI50 was 15.7 µM (inactive) in the assay on ACHN; 9.4 µM (inactive) in the assay with SW-620; 14.5 µM (inactive) with 786-0; 29 µM (inactive) with SK-OV-3; 0.887 µM (active) in the assay on SNB-75; 33.2 µM (inactive) in the assay on SNB-19. Further, the GI50 in the assay with EKVX was 16.7 µM (inactive); in the assay on RPMI-8226 it was 12.1 µM (inactive); with NCI-H226, 24.8 µM (inactive); with SK-MEL-2, 10.1 µM (inactive); in the assay with HCT-116 it was 13.7 µM (inactive); with Malme-3M it was 13 µM (inactive). Besides, the GI50 in the assay with K562 was 14.7 µM (inactive); with A549, 19.8 µM (inactive); with LOX IMVI, 17.6 µM (inactive); in the assay on SF-268 it was 17 µM (inactive).

For `OC1CCCCCCCCCCC1SCCCCl` (centres undefined), the GI50 in the assay with ACHN, in the assay on SW-620, with MDA-MB-231, with 786-0, with SK-OV-3 and in the assay with NCI/ADR-RES was > 100 µM (inactive) throughout. The GI50 in the assay on SNB-19, in the assay on EKVX, with RPMI-8226, with NCI-H226, in the assay with SK-MEL-2 and with HCT-116 was > 100 µM (inactive) in each case. In addition, the GI50 was 81.8 µM (inactive) in the assay with Malme-3M; > 100 µM (inactive) in the assay on K562; > 100 µM (inactive) in the assay on A549; > 100 µM (inactive) in the assay on LOX IMVI; > 100 µM (inactive) in the assay on SF-268; > 100 µM (inactive) in the assay with DU-145.

Turning to `CCSc1[nH]c(NC(=S)NC(=O)c2ccccc2Cl)c(C(N)=O)c1C(N)=O`, the GI50 with SW-620, in the assay on MDA-MB-231, with 786-0, in the assay on SK-OV-3, with SNB-75 and in the assay on EKVX was > 10 µM (inactive) each time. Besides, the GI50 in the assay with RPMI-8226, in the assay with Malme-3M, with K562, in the assay on A549, in the assay with LOX IMVI and in the assay with SF-268 was > 10 µM (inactive) throughout. The GI50 with DU-145 was > 10 µM (inactive).

Consider `COc1cc(/C=C(\NC(=O)c2ccccc2)c2nc3ccc4c(c3[nH]2)C(=O)c2ccccc2C4=O)cc(OC)c1OC`, for which the GI50 in the assay with SW-620 is 38.3 µM (inactive); in the assay with 786-0, 28.2 µM (inactive); with SK-OV-3, 18.6 µM (inactive); with SNB-75, 22.9 µM (inactive); in the assay with SNB-19 it was 99.1 µM (inactive); with EKVX it was 44 µM (inactive). The GI50 with RPMI-8226 is 2.92 µM (inactive); in the assay on NCI-H226 it was > 100 µM (inactive); in the assay with SK-MEL-2, 50.5 µM (inactive); in the assay on HCT-116 it was 23.1 µM (inactive); in the assay with Malme-3M it was > 100 µM (inactive); in the assay on K562, 28 µM (inactive). The results for the GI50 with A549, with LOX IMVI and in the assay with SF-268 were 21.4 µM (inactive), 20.3 µM (inactive) and 8.91 µM (inactive), respectively.

In the case of `Clc1ccc(SC(/C=C/NNC2=NN=C(c3ccccc3)C(c3ccccc3)N2)c2ccccc2)cc1` (centres undefined), the GI50 with ACHN was 21 µM (inactive); in the assay with SW-620, 33.5 µM (inactive); with 786-0 it was 28.2 µM (inactive); in the assay with SK-OV-3 it was 68.1 µM (inactive); in the assay on SNB-75, 15.2 µM (inactive); with SNB-19, 80.5 µM (inactive). The GI50 in the assay on EKVX is 26.9 µM (inactive); in the assay with RPMI-8226 it was 6.64 µM (inactive); in the assay on NCI-H226 it was 13.4 µM (inactive); in the assay with SK-MEL-2, 18.7 µM (inactive); with HCT-116, 16.1 µM (inactive); with Malme-3M, 18.2 µM (inactive). The GI50 in the assay on K562 is 18.2 µM (inactive); in the assay with A549, 29.2 µM (inactive); in the assay on LOX IMVI, 21.9 µM (inactive); in the assay on SF-268, 14.4 µM (inactive).

Turning to `NC(=O)/C=C/C(=O)O`, the GI50 with ACHN, with SW-620, in the assay on 786-0, with SK-OV-3, in the assay on SNB-75 and with RPMI-8226 was > 5000 µM (inactive) each time. Also, the GI50 in the assay on NCI-H226, in the assay with SK-MEL-2, in the assay with HCT-116, with Malme-3M, in the assay with K562 and in the assay with A549 was > 5000 µM (inactive) throughout. Also, the GI50 in the assay with LOX IMVI and in the assay on SF-268 was > 5000 µM (inactive) in each case.

On to `CC[N+](C)(C)c1ccc(C(=C2C=CC(=[N+](C)C)C=C2)c2ccc(N(C)C)cc2)cc1`, for which the GI50 was 10.8 µM (inactive) with ACHN; 4.41 µM (inactive) in the assay with SW-620; 5.94 µM (inactive) with 786-0; 19.4 µM (inactive) in the assay with SK-OV-3; 4.76 µM (inactive) with SNB-75; 4.97 µM (inactive) in the assay with EKVX. The GI50 in the assay with RPMI-8226 was 2.19 µM (inactive); in the assay with NCI-H226, 19.7 µM (inactive); with SK-MEL-2 it was 21.1 µM (inactive); in the assay on HCT-116, 4.2 µM (inactive); with Malme-3M, 22.8 µM (inactive); with K562 it was 3.12 µM (inactive). Moreover, the GI50 was 4.45 µM (inactive) in the assay on A549, 5.2 µM (inactive) with LOX IMVI and 10.8 µM (inactive) with SF-268.

As for `Cc1nc2ccccc2c(=O)n1/N=C(\N=N\c1ccccc1)c1ccccc1Cl`, the GI50 in the assay on ACHN is 33.3 µM (inactive); in the assay with SW-620, > 88.5 µM (inactive); in the assay with 786-0, 44.8 µM (inactive); in the assay on SK-OV-3, 11.2 µM (inactive); with SNB-75 it was 23.8 µM (inactive); in the assay with SNB-19 it was 48.1 µM (inactive). For the same compound, the GI50 with EKVX is 22.4 µM (inactive); with RPMI-8226, 20.4 µM (inactive); in the assay on NCI-H226, 14.5 µM (inactive); in the assay on SK-MEL-2, 20.7 µM (inactive); in the assay with HCT-116, > 10 µM (inactive); in the assay with Malme-3M, 53 µM (inactive). For the same compound, the GI50 was 30.6 µM (inactive) in the assay on K562, 52.5 µM (inactive) in the assay on A549, 66.1 µM (inactive) in the assay on LOX IMVI and 39 µM (inactive) in the assay on SF-268.

Take `O=S1(=O)CCCS(=O)(=O)C(c2ccccc2)=C1c1ccccc1`: the GI50 in the assay with ACHN is 54 µM (inactive); with SW-620, 27.5 µM (inactive); in the assay with 786-0 it was 66.4 µM (inactive); with SK-OV-3 it was 44.2 µM (inactive); with SNB-75, 27.5 µM (inactive); with EKVX, > 100 µM (inactive). The GI50 in the assay with RPMI-8226 was 41 µM (inactive); with NCI-H226, 56.5 µM (inactive); in the assay on SK-MEL-2, 42.6 µM (inactive); with HCT-116, 30.5 µM (inactive); in the assay with Malme-3M, 34.2 µM (inactive); in the assay with K562, 31.9 µM (inactive). For the same compound, the GI50 in the assay with A549 was 42.3 µM (inactive); in the assay on LOX IMVI, 33 µM (inactive); in the assay on SF-268, > 100 µM (inactive).

For the compound `Cc1ccc(N2C(=O)C(Cl)=C(Cl)C2=O)cc1`, the GI50 is 19.6 µM (inactive) in the assay with ACHN; 19.7 µM (inactive) with SW-620; 17.3 µM (inactive) in the assay on 786-0; 44 µM (inactive) with SK-OV-3; 22.5 µM (inactive) in the assay with SNB-75; > 100 µM (inactive) in the assay with SNB-19. Besides, the GI50 in the assay with EKVX was 21.5 µM (inactive); with RPMI-8226 it was 18.8 µM (inactive); with NCI-H226, > 100 µM (inactive); in the assay on SK-MEL-2, > 100 µM (inactive); in the assay on HCT-116, 17 µM (inactive); in the assay on Malme-3M, 18.7 µM (inactive). Moreover, the GI50 was 18.7 µM (inactive) in the assay on K562, 37.6 µM (inactive) with A549, 23.6 µM (inactive) with LOX IMVI and 17.9 µM (inactive) in the assay on SF-268.

Consider `CC(C)C1=CC23CCC4C(C)(C(=O)O)CCCC4(C)C2CC1C1C(=O)N(c2ccccc2N2C(=O)C4C5CC6C7(C)CCCC(C)(C(=O)O)C7CCC6(C=C5C(C)C)C4C2=O)C(=O)C13` (centres undefined), for which the GI50 in the assay with ACHN is 10.2 µM (inactive); in the assay with SW-620 it was 12.6 µM (inactive); in the assay with MDA-MB-231, 11.6 µM (inactive); in the assay on 786-0, 14.4 µM (inactive); in the assay with SNB-19, 4.79 µM (inactive); with EKVX, 3.64 µM (inactive). Moreover, the GI50 in the assay with RPMI-8226 is 7.64 µM (inactive); in the assay on NCI-H226, 12.1 µM (inactive); in the assay with SK-MEL-2, 12.2 µM (inactive); with HCT-116, 5.77 µM (inactive); with Malme-3M, 13.1 µM (inactive); in the assay on K562, 6.58 µM (inactive). The GI50 in the assay on A549 is 14 µM (inactive); in the assay on SF-268 it was 3.09 µM (inactive); with DU-145, 9.4 µM (inactive).

`CC1(Br)C(=O)NC(=O)N([C@H]2C[C@H](O)[C@@H](CO)O2)C1N=[N+]=[N-]` (some centres undefined): the GI50 in the assay on ACHN, in the assay on SW-620, in the assay on 786-0, in the assay on SK-OV-3, in the assay on SNB-75 and in the assay on SNB-19 was > 100 µM (inactive) each time. Moreover, the GI50 with EKVX, in the assay with RPMI-8226, in the assay with NCI-H226, in the assay with SK-MEL-2, in the assay with HCT-116 and in the assay with Malme-3M was > 100 µM (inactive) throughout. Moreover, the GI50 in the assay on K562, with A549, in the assay on LOX IMVI and with SF-268 was > 100 µM (inactive) in each case.

The record behind these values is ChEMBL document CHEMBL1201862, “PubChem BioAssay data set” (2004).
